Patent US20040192764A1 (H. Lundbeck A/S, priority 2001, published 2004)

Assay: pharmacological and clinical studies (potency versus racemate, influence of R-citalopram)
Format: in vivo
Details: presence of R-citalopram
Text: This may be shown in functional in-vivo pharmacological models and studies of 5-HT-reuptake effect and or in behaviour models, for example depression models.

CN(C)CCC[C@]1(c2ccc(F)cc2)OCc2cc(C#N)ccc21 [R-citalopram]
influence on the effect of escitalopram: negative impact on the effect of escitalopram
